The values that follow come from US8431591B2, “R(−)-2-methoxy-11-hydroxyaporphine and derivatives thereof” (The McLean Hospital Corporation, priority 2007, dated 2013).

Like-named read-outs stand apart in the source and are kept apart here.

In assay [1] the target is dopamine D1 receptor (Rattus norvegicus, UniProt P18901). As to the kind of experiment: Radioligand competition assay, affinity at rat D1 receptors ([3H]SCH23390). The assay is classed as binding. Conditions: radioligand [3H]SCH23390.
In assay [2] the target is dopamine D2 receptor (Rattus norvegicus, UniProt P61169). The experiment in a line: Radioligand competition assay, affinity at rat D2 receptors ([3H]nemonapride). The class given is binding.
Assay [3] has as its system D2 receptor. The conditions noted are these: Gao et al., J. Med. Chem. 33:1800 (1990); cited from earlier work.
For assay [4] the following is noted: following a single dose; cited from earlier work.

dopamine D2 receptor, sequence (P61169 whole entry): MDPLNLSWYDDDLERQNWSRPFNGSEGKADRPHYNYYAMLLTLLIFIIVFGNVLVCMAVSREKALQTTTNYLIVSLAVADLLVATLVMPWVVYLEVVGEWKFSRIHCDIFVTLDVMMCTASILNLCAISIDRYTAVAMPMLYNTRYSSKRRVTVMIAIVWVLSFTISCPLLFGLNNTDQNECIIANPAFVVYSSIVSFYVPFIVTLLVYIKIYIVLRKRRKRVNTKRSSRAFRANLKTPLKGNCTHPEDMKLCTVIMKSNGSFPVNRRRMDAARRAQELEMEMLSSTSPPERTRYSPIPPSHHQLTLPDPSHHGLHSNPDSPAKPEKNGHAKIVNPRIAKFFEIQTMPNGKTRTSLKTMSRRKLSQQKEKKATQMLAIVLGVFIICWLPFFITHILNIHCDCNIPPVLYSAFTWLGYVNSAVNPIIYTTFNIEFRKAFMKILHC
dopamine D1 receptor, sequence (P18901 whole entry): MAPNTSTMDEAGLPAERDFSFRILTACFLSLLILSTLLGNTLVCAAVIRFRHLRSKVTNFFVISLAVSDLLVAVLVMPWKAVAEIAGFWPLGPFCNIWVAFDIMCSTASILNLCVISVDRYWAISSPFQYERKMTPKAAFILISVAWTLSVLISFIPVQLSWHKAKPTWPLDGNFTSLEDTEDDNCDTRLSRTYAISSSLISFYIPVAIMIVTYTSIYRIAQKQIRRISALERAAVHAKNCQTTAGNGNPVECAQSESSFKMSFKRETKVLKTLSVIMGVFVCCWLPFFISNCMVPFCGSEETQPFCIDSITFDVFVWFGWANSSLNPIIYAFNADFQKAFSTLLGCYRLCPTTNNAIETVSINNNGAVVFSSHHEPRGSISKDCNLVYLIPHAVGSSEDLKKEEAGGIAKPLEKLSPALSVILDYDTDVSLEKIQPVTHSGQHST

Take `COc1cc2c3c(c1)-c1c(O)cccc1CC3N(C)CC2` (stereo not drawn) [Compound 3, 2-Methoxy-11-hydroxyaporphine]: the Ki in assay [1] amounted to 46 ± 2.8 nM; in assay [2] (rat receptors, radioligand [3H]nemonapride, read-out: Affinity at rat receptors, D2), 235 ± 32 nM. With `CCCN1CCc2cc(OC)cc3c2[C@H]1Cc1ccc(O)c(O)c1-3` [Compound 1c, R(−)-2-methoxy-N-n-propylnorapomorphine], in assay [3], the “D2 receptor affinity and selectivity (in words)” value is “among the most potent and highly selective agonists for the D2 receptor”.

For `CCCN1CCc2cccc3c2[C@H]1Cc1cccc(O)c1-3` [Compound 2, R(−)-11-hydroxy-N-n-propylnoraporphine], the “D2 receptor affinity and selectivity (in words)” value in assay [3] was “even higher affinity and selectivity for D2 receptor than apomorphine”. In the case of `CN1CCc2cccc3c2[C@H]1Cc1ccc(O)c(O)c1-3` [apomorphine, R(−)-Apomorphine], in assay [4], the duration of effects was 40 to 60 min and the onset of action was 5 to 15 min. For the compound `COc1cc2c3c(c1)-c1c(ccc(O)c1O)C[C@H]3N(C)CC2` [Compound 8], the Ki in assay [1] is 6450 nM; in assay [2], 1.3 ± 0.4 nM. Turning to `CCCN1CCc2cc(O)cc3c2[C@H]1Cc1ccc(O)c(O)c1-3` [R(−)-2-OH-NPA, R(−)-2-hydroxy-N-n-propylnorapomorphine], the “D2 receptor affinity and selectivity (in words)” value in assay [3] is “among the most potent and highly selective agonists for the D2 receptor”.
